Read-outs that look alike come from different tables or passages of the source.
Assays:
[1] = test system: Serratia marcescens expressing IMP-1 (CL5741); assay: Antibiotic potentiation activity: synergistic concentration (MITC95) with imipenem, growth by OD600; type: cell-based
In short: (§1)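 MITC95 = lowest inhibitor concentration giving 95% growth inhibition, read by absorbance after 22–24 h at 35° C. Compound range 200 μM to 0.195 μM, imipenem fixed at 1 or 4 μg/ml, bacteria in 1.1×CAMHB from saline suspension diluted 1:100.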

[2] = test system: Escherichia coli expressing NDM-1 (CLB30005); assay: as above; type: cell-based
In short: as §1

[3] = test system: Klebsiella pneumoniae expressing VIM-1 (IHMA599644); assay: as above; type: cell-based
In short: as §1

NDM-1 = NDM-1 (Klebsiella pneumoniae, UniProt C7C422); assay: Enzyme activity: determination of IC50, fluorescence assay with CCF2-FA substrate; type: biochemical; settings: CCF2-FA 1.25 μM, 2 hours at 25° C., read-out: NDM1 IC50
Chain of NDM-1 (C7C422 29-270, looked up, species assumed): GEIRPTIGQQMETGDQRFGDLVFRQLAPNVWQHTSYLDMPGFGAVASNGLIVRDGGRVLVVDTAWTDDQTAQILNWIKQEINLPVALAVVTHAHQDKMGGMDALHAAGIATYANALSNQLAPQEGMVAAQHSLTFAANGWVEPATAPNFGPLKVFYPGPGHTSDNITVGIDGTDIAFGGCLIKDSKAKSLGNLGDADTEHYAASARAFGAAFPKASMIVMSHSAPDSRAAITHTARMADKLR
In short: (§2)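 In pH 7 phosphate buffer (100 mM) with 10 μM ZnSO4 and 0.005% Tween-20, CCF2-FA substrate (1.25 μM final) was hydrolysed for 2 h at 25 °C by NDM-1, IMP-1 or VIM-1 at 1, 2 or 30 pM in the presence of inhibitor at 20–0.00063 μM. Emission 460 nm/excitation 405 nm; 4-parameter curve fit gave IC50.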

VIM-1 = VIM-1 (Pseudomonas aeruginosa, UniProt A0A0F7KYQ8); assay: as above; type: biochemical; settings: CCF2-FA 1.25 μM, 2 hours at 25° C., read-out: VIM1 IC50
In short: as §2

IMP-1 = IMP-1 (Serratia marcescens, UniProt P52699); assay: as above; type: biochemical; settings: CCF2-FA 1.25 μM, 2 hours at 25° C., read-out: IMP1 IC50
Chain of IMP-1 (P52699 19-246, looked up, species assumed): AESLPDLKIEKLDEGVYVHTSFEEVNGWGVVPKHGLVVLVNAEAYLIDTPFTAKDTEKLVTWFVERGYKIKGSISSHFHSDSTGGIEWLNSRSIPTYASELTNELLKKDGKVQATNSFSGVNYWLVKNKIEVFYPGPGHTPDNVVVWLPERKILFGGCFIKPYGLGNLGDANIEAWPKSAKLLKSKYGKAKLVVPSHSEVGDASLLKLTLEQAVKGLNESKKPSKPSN
In short: as §2

[4] = 95% inhibition of bacterial growth, strain CL5741
[5] = 95% inhibition of bacterial growth, strain CLB30005
[6] = 95% inhibition of bacterial growth, strain IHMA599644
[7] = S. marcescens CL5741 (IMP-1), 95% inhibition of growth
[8] = E. coli CLB30005 (NDM-1), 95% inhibition of growth
[9] = K. pneumoniae IHMA599644 (VIM-1), 95% inhibition of growth

Structure (SMILES)	IMP1 SM5741 MITC95 [1, 4] [µM]	NDM1 EC30005 MITC95 [2, 5] [µM]	VIM1 KP599644 MITC95 [3, 6] [µM]	IC50 (NDM-1; enzyme 1 pM) [µM]	IC50 (VIM-1; enzyme 30 pM) [µM]	IC50 (IMP-1; enzyme 2 pM) [µM]	IMP1 SM5741 MITC95 [1, 7] [µM]	NDM1 EC30005 MITC95 [2, 8] [µM]	VIM1 KP599644 MITC95 [3, 9] [µM]	IC50 (NDM-1; NDM-1 enzyme 1 pM) [µM]	IC50 (VIM-1; VIM-1 enzyme 30 pM) [µM]	IC50 (IMP-1; IMP-1 enzyme 2 pM) [µM]
O=C(O)CCCC[C@H](C(=O)O)[C@H](Cc1ccccc1)c1nnn[nH]1 [Example 34, (S)-2-((S)-2-phenyl-1-(1H-tetrazol-5-yl)ethyl)heptanedioic acid]	200	25	200	0.2	0.04	1.5	–	–	–	–	–	–
CCC[C@H](C(=O)O)[C@H](Cc1ccc(Cl)nc1)c1nnn[nH]1 [Example 82, (S)-2-((S)-2-(6-chloropyridin-3-yl)-1-(1H-tetrazol-5-yl)ethyl)pentanoic acid]	200	6.2	25	0.24	0.0057	4.6	–	–	–	–	–	–
CCC[C@H](C(=O)O)[C@H](Cc1ccc(COCCN2CCOCC2)cc1)c1nn[nH]n1 [Example 252, (2S)-2-[(1S)-2-{4-[(2-morpholin-4-ylethoxy)methyl]phenyl}-1-(2H-tetrazol-5-yl)ethyl]pentanoic acid]	–	–	–	–	–	–	150	15	50	0.18	0.089	0.8
O=C(O)[C@H](CCC1CCCCC1)[C@@H](Cc1ccccc1)c1nnn[nH]1 [Example 31, (2R,3R)-2-(2-cyclohexylethyl)-4-phenyl-3-(1H-tetrazol-5-yl)butanoic acid]	>200	>200	>200	0.74	0.59	0.41	–	–	–	–	–	–
O=C(O)[C@@H](Cc1ccccc1)[C@H](Cc1ccccc1)c1nnn[nH]1 [Example 3, (2S,3S)-2-benzyl-4-phenyl-3-(1H-tetrazol-5-yl)butanoic acid]	112.5	200	>200	0.35	0.64	0.55	–	–	–	–	–	–
CCC[C@H](C(=O)O)[C@H](Cc1ccc(-c2ccc3c(c2)CCC(N)C3)cc1)c1nn[nH]n1 (stereo partly drawn) [Example 193, (2S)-2-[(1S)-2-[4-(6-amino-5,6,7,8-tetrahydronaphthalen-2-yl)phenyl]-1-(2H-tetrazol-5-yl)ethyl]pentanoic acid]	6.2	4.7	50	0.058	0.018	0.045	–	–	–	–	–	–
O=C(O)[C@@H](C1CCCC1)[C@H](Cc1ccccc1)c1nnn[nH]1 [Example 17, (2S,3S)-2-cyclopentyl-4-phenyl-3-(1H-tetrazol-5-yl)butanoic acid]	37.5	18.8	37.5	0.016	0.0037	0.11	–	–	–	–	–	–
CCC[C@H](C(=O)O)[C@H](Cc1ccc(-c2cnn(Cc3ccncc3)c2)cc1)c1nnn[nH]1 [Example 250, (2S)-2-[(1S)-2-{4-[1-(pyridin-4-ylmethyl)-1H-pyrazol-4-yl]phenyl}-1-(1H-tetrazol-5-yl)ethyl]pentanoic acid]	–	–	–	–	–	–	200	25	>200	0.0096	0.0075	0.082
CCC[C@H](C(=O)O)[C@H](Cc1ccc(-c2ccc3c(c2)CNCC3)cc1)c1nnn[nH]1 [Example 236, (2S)-2-[(1S)-2-[4-(1,2,3,4-tetrahydroisoquinolin-7-yl)phenyl]-1-(1H-tetrazol-5-yl)ethyl]pentanoic acid]	7.8	12.5	50	0.099	0.0044	0.071	–	–	–	–	–	–
CCC[C@H](C(=O)O)[C@H](Cc1ccc(-c2cccc(C3CCCNC3)c2)cc1)c1nn[nH]n1 (stereo partly drawn) [Example 195, (2S)-2-[(1S)-2-(3′-piperidin-3-ylbiphenyl-4-yl)-1-(2H-tetrazol-5-yl)ethyl]pentanoic acid]	28	4.7	38	0.085	0.011	0.11	–	–	–	–	–	–

From patent US9839642B2, “Beta-tetrazolyl-propionic acids as metallo-beta-lactamase inhibitors” (priority 2014, dated 2017)
